Measured values taken from ChEMBL document CHEMBL5725801, “Fused heterocyclic compounds as CaM kinase inhibitors” (2018).

Test: CaMKII Cell-Based Activity: CaMKII activity in neonatal rat ventricular myocytes (NRVM) was measured by monitoring the phosphorylation level of phospholamban using high-content imaging. NRVMs were plated in a clear bottom 384-well plate in medium supplemented with 10% fetal bovine serum (FBS) and incubated at 37° C., 5% CO2 overnight. The medium was changed to a serum-free medium and compounds were dosed to the cells. The cells were incubated at 37° C., 5% CO2 for 4 hours and were then treated with 100 nM ATX-II (Alomone Labs) to activate CaMKII. 10 minutes after the addition of ATX-II, the cells were fixed with 4% formaldehyde followed by permeabilization with 0.1% triton X100. The fixed cells were stained with an anti-phospho-phospholamban primary antibody (Santa Cruz Biotechnology) and an Alexa488-labeled anti-rabbit IgG secondary antibody (Life Technologies Corporation) as well as Hoechst 33342 (Life Technologies Corporation). The cells were imaged using an ArrayScan VTI (Cellomics) and analyzed for cells containing a positive fluorescent signal at 485 nm, reported as % responder. The % responders were plotted against the compound concentration to determine the compounds EC50.

Compound | EC50
CCN(CC)[C@@H](C)CNC(=O)c1cc(OCCOC)nc(-c2cnn3ccc(-c4cccs4)nc23)c1 | 32 nM
CCN(CC)[C@@H](C)CNC(=O)c1cc(-c2cnn3ccc(-c4cccs4)nc23)nc(N2CC[C@H]2C(=O)N2CC(C)(C)C2)c1 | 79 nM
CCN(CC)[C@@H](C)CNC(=O)c1cc(-c2cnn3ccc(-c4cccs4)nc23)nc(N2CC[C@@H](N)C2)c1 | 68.8 nM
CCN(CC)[C@@H](C)CNC(=O)c1cc(-c2cnn3ccc(-c4cccs4)nc23)nc(N2CC[C@H]2C(=O)N(C)OC)c1 | 28.6 nM
CCN(CC)[C@@H](C)CNC(=O)c1cc(O[C@H]2CCOC2)nc(-c2cnn3ccc(-c4cccs4)nc23)c1 | 57.1 nM
COC1CN(c2cc(C(=O)N3[C@H]4CCNC[C@@H]3CC4)cc(-c3cnn4ccc(-c5cccs5)nc34)n2)C1 | 148 nM
COC1CN(c2cc(C(=O)N3CC[C@H](N)C3)cc(-c3cnn4ccc(-c5cccs5)nc34)n2)C1 | 154 nM
CCN(CC)[C@@H](C)CNC(=O)c1cc(-c2cnn3ccc(-c4cccs4)nc23)nc(N2CC[C@H](C(=O)NC)C2)c1 | 69.3 nM
CCN(CC)[C@@H](C)CNC(=O)c1cc(-c2cnn3ccc(-c4ccns4)nc23)nc(N2CC[C@H]2C(=O)NC)c1 | 32.7 nM
CCN(CC)[C@@H](C)CNC(=O)c1cc(-c2cnn3ccc(-c4cccs4)nc23)nc(N2CC[C@H]2C(=O)N2CC3CC3C2)c1 (some centres not stated) | 33.9 nM
CCN(CC)[C@@H](C)CNC(=O)c1cc(O[C@@H]2CCOC2)nc(-c2cnn3ccc(-c4cccs4)nc23)c1 | 66.2 nM
CCC(CNC(=O)c1cc(-c2cnn3ccc(-c4cccs4)nc23)nc(N2CC[C@H]2C(=O)NC)c1)N(CC)CC (some centres not stated) | 36.8 nM
CCN(CC)[C@@H](C)CNC(=O)c1cc(OCC(C)(C)O)nc(-c2cnn3ccc(-c4cccs4)nc23)c1 | 38.4 nM
CCN(CC)[C@@H](C)CNC(=O)c1cc(-c2cnn3ccc(-c4cccs4)nc23)nc(N2CC[C@H]2C(=O)NCC(F)F)c1 | 27.5 nM
CCN(CC)[C@@H](C)CNC(=O)c1cc(OCC2(C)COC2)nc(-c2cnn3ccc(-c4cccs4)nc23)c1 | 55.3 nM
CC(C)(O)CNc1cc(C(=O)N2CC3CCC(C2)NC3)cc(-c2cnn3ccc(-c4cccs4)nc23)n1 (configuration not stated) | 406 nM
CN(CCn1ccnc1)c1cc(C(=O)N2CC3CCC(C2)NC3)cc(-c2cnn3ccc(-c4cccs4)nc23)n1 (configuration not stated) | 449 nM
CCCN(CC)[C@@H](C)CNC(=O)c1cc(-c2cnn3ccc(-c4cccs4)nc23)nc(N2CC[C@H]2C(=O)NC)c1 | 13.6 nM
CCN(CC)[C@@H](C)CNC(=O)c1cc(-c2c(C)n[nH]c2C)nc(-c2cnn3ccc(-c4cccs4)nc23)c1 | 9.37 nM
CCN(CC)[C@@H](C)CNC(=O)c1cc(OCCCOC)nc(-c2cnn3ccc(-c4cccs4)nc23)c1 | 37.8 nM
CCN(CC)[C@@H](C)CNC(=O)c1cc(-c2c[nH]nc2C(F)(F)F)nc(-c2cnn3ccc(-c4cccs4)nc23)c1 | 20.3 nM
COC1CN(c2cc(C(=O)N3C4CC[C@@H]3CCNC4)cc(-c3cnn4ccc(-c5ccccc5)nc34)n2)C1 | 272 nM
CCN(CC)[C@@H](C)CNC(=O)c1cc(-c2cnn3ccc(-c4ccc(F)s4)nc23)nc(N2CC[C@H]2C(=O)NC)c1 | 10 nM
CCN(CC)[C@@H](C)CNC(=O)c1cc(-c2cnn3ccc(-c4cccs4)nc23)nc(N2CC[C@H]2C(=O)N2CCOCC2)c1 | 21.3 nM

Compound | EC50
CCN(CC)[C@@H](C)CNC(=O)c1cc(-c2cnn3ccc(-c4cccs4)nc23)nc(N2CC[C@H]2C(=O)NCCO)c1 | 84.9 nM
CCN(CC)[C@@H](C)CNC(=O)c1cc(OCc2cccnc2)nc(-c2cnn3ccc(-c4cccs4)nc23)c1 | 56.1 nM
CCN(CC)[C@@H](C)CNC(=O)c1cc(-c2cnn3ccc(-c4cccs4)nc23)nc(N2CC[C@H](N)C2)c1 | 68.7 nM
CCN(CC)[C@@H](C)CNC(=O)c1cc(-c2cnn3ccc(-c4cccs4)nc23)nc(N2CCC[C@@H]2C(=O)NC)c1 | 815 nM
O=C(c1cc(-c2cnn3ccc(-c4cccs4)nc23)nc(N2CCN(C3COC3)CC2)c1)N1CC2CCC(C1)NC2 (configuration not stated) | 81.8 nM
CCN(CC)[C@@H](C)CNC(=O)c1cc(-c2cnn3ccc(-c4cccs4)nc23)nc(N2CC[C@H]2C(=O)Nc2nccs2)c1 | 127 nM
COC1CN(c2cc(C(=O)N3CC[C@H](N)C3)cc(-c3cnn4ccc(-c5ccccc5)nc34)n2)C1 | 42.9 nM
CCN(CC)[C@@H](C)CNC(=O)c1cc(-c2cnn3ccc(-c4ccccc4)nc23)nc(N2CC[C@H]2C(=O)NC)c1 | 146 nM
CCN(CC)[C@@H](C)CNC(=O)c1cc(-c2cnoc2)nc(-c2cnn3ccc(-c4cccs4)nc23)c1 | 29.7 nM
CCN(CC)CCNC(=O)c1cc(-c2cnn3ccc(-c4cccs4)nc23)nc(N2CC[C@H]2C(=O)NC)c1 | 34.7 nM
CCN(CC)[C@@H](C)CNC(=O)c1cncc(-c2cnn3ccc(-c4cccs4)nc23)c1 | 22 nM
CCN(CC)[C@@H](C)CNC(=O)c1cc(-c2cnn3ccc(-c4cccs4)nc23)nc(N2CC[C@H]2C(=O)N2CC(OC)C2)c1 | 32.5 nM
CCN(CC)[C@@H](C)CNC(=O)c1cc(OCCc2cnccn2)nc(-c2cnn3ccc(-c4cccs4)nc23)c1 | 64.2 nM
CCN(CC)[C@@H](C)CNC(=O)c1cc(OC[C@H](C)OC)nc(-c2cnn3ccc(-c4cccs4)nc23)c1 | 48.4 nM
CCN(CC)[C@@H](C)CNC(=O)c1cc(-c2cnn3ccc(-c4cccs4)nc23)nc(N2CC[C@H]2C(N)=O)c1 | 36 nM
CCN(CC)[C@@H](C)CNC(=O)c1cc(-c2cnn3ccc(-c4cccs4)nc23)nc(N2CC[C@H]2C(=O)N2CCCC2)c1 | 22.3 nM
CCN(CC)[C@@H](C)CNC(=O)c1cc(-c2cnn3ccc(-c4cccs4)nc23)nc(N2CC[C@H]2C(=O)N(C)O)c1 | 25.6 nM
CCN(CC)[C@@H](CO)CNC(=O)c1cc(-c2cnn3ccc(-c4cccs4)nc23)nc(N2CC[C@H]2C(=O)NC)c1 | 72.9 nM
CCN(CC)[C@@H](C)CNC(=O)c1cc(-c2cnn3ccc(-c4cccs4)nc23)nc(N2CC[C@@H](C(=O)NC)C2)c1 | 46.9 nM
CNC(=O)[C@@H]1CCN1c1cc(C(=O)NC[C@H](C)N)cc(-c2cnn3ccc(-c4cccs4)nc23)n1 | 6740 nM
CC[C@@H](CNC(=O)c1cc(-c2cnn3ccc(-c4cccs4)nc23)nc(N2CC[C@H]2C(=O)NC)c1)N(CC)CCO | 57.6 nM
CCN(CC)[C@@H](C)CNC(=O)c1cc(-c2cnn3ccc(-c4cccs4)nc23)nc(N2CC[C@H]2C(=O)NCC#N)c1 | 65.3 nM
CCN(CC)[C@@H](C)CNC(=O)c1cc(-c2cnn3ccc(-c4cccs4)nc23)nc(N2CC[C@H]2C(=O)O)c1 | 89.3 nM
CCN(CC)[C@@H](C)CNC(=O)c1cc(-c2cnn3ccc(-c4cccs4)nc23)nc(N2CC[C@H]2C(=O)N2CC(F)C2)c1 | 16.2 nM

Compound | EC50
CCN(CC)[C@@H](C)CNC(=O)c1cc(-c2cnn3ccc(-c4cccs4)nc23)nc(N2CC[C@H]2C(=O)NCCOC)c1 | 47.1 nM
CCN(CC)[C@@H](C)CNC(=O)c1cc(-c2cc[nH]n2)nc(-c2cnn3ccc(-c4cccs4)nc23)c1 | 14.5 nM
CCN(CC)[C@@H](C)CNC(=O)c1cc(OC[C@H]2CCCO2)nc(-c2cnn3ccc(-c4cccs4)nc23)c1 | 27.8 nM
CCN(CC)[C@@H](C)CNC(=O)c1cc(-c2cnn3ccc(-c4cccs4)nc23)nc(N2CCNC(=O)C2)c1 | 96 nM
CCN(CC)[C@@H](C)CNC(=O)c1cc(-c2cnn3ccc(-c4cccs4)nc23)nc(N2CC[C@H]2C(=O)NCC(F)(F)F)c1 | 41.6 nM
CCN(CC)[C@@H](C)CNC(=O)c1cc(-c2cnn3ccc(-c4cccs4)nc23)nc(N2CC[C@H]2C(=O)N2CC(O)C2)c1 | 152 nM
CCN(CC)[C@@H](C)CNC(=O)c1cc(-c2cnn(C)c2)nc(-c2cnn3ccc(-c4cccs4)nc23)c1 | 8.24 nM
CCN(CC)[C@@H](C)CNC(=O)c1cc(-c2cnn3ccc(-c4cccs4)nc23)nc(N2CC[C@H]2C(=O)N2CC(S(C)(=O)=O)C2)c1 | 281 nM
CCN(CC)[C@@H](C)CNC(=O)c1cc(OCc2ccc[n+]([O-])c2)nc(-c2cnn3ccc(-c4cccs4)nc23)c1 | 68.5 nM
COC1CN(c2cc(C(=O)N3CC4CCC(C3)NC4)cc(-c3cnn4ccc(-c5cccs5)nc34)n2)C1 (configuration not stated) | 63.6 nM
CCN(CC)[C@@H](C)CNC(=O)c1cc(-c2cnn3ccc(-c4cccs4)nc23)nc(N2CC[C@H]2C(=O)N2CC(NS(C)(=O)=O)C2)c1 | 147 nM
CCN(CC)[C@@H](C)CNC(=O)c1cc(-c2cn[nH]c2)nc(-c2cnn3ccc(-c4cccs4)nc23)c1 | 13.5 nM
COCCNc1cc(C(=O)N2CC3CCC(C2)NC3)cc(-c2cnn3ccc(-c4cccs4)nc23)n1 (configuration not stated) | 124 nM
CCN[C@@H](C)CNC(=O)c1cc(-c2cnn3ccc(-c4cccs4)nc23)nc(N2CC[C@H]2C(=O)NC)c1 | 654 nM
CCN(CC)[C@@H](C)CNC(=O)c1cc(-c2cnn3ccc(-c4cccs4)nc23)nc(-c2cnn3ccc(-c4cccs4)nc23)c1 | 794 nM
CCN(CC)[C@@H](C)CNC(=O)c1cc(OCCN(C)C)nc(-c2cnn3ccc(-c4cccs4)nc23)c1 | 115 nM
CCN(CC)[C@@H](C)CNC(=O)c1cc(-c2cnn(C3COC3)c2)nc(-c2cnn3ccc(-c4cccs4)nc23)c1 | 12.3 nM
CCN(CC)[C@@H](C)CNC(=O)c1cc(OCCN2CCOCC2)nc(-c2cnn3ccc(-c4cccs4)nc23)c1 | 86.8 nM
CCN(CC)[C@@H](C)CNC(=O)c1cc(-c2c[nH]nc2C)nc(-c2cnn3ccc(-c4cccs4)nc23)c1 | 70.4 nM
CCN(CC)[C@@H](C)CNC(=O)c1cc(-c2cnn3ccc(-c4cccs4)nc23)nc(N2CC[C@H]2C(=O)N2CCS(=O)(=O)CC2)c1 | 118 nM
COC1CN(c2cc(C(=O)N3CC4CCC(C3)NC4)cc(-c3cnn4ccc(-c5ccccc5)nc34)n2)C1 (configuration not stated) | 95.6 nM
CCN(CC)[C@@H](C)CNC(=O)c1cc(-c2cnn3ccc(-c4cccs4)nc23)nc(N2CC[C@H]2C(=O)NOC)c1 | 84.2 nM
CCN(CC)[C@@H](C)CNC(=O)c1cc(-c2cnn3ccc(-c4cccs4)nc23)nc(N2CC[C@H]2C(=O)N2CC(F)(F)C2)c1 | 29.4 nM
CCN(CC)[C@@H](C)CNC(=O)c1cc(-c2cnn3ccc(-c4cccs4)nc23)nc(N2CCC[C@H]2C(=O)NC)c1 | 114 nM
